Test system: not given
Experiment: not given
Conditions: not given
For `c1cncc(-c2cn(-c3cccnc3)nn2)c1` [Compound 1B, 3-(1-Pyridin-3-yl-1H-[1,2,3]triazol-4-yl)-pyridine], the melting point was 217 to 219 °C.
Compound `Fc1cccc(Cl)c1-c1cn(-c2cccnc2)nn1` [Compound 1E, 3-[4-(2-Chloro-6-fluoro-phenyl)-[1,2,3]triazol-1-yl]-pyridine] has a melting point of 94 to 95.2 °C.
Work on `[C-]#[N+]c1cccc(-c2cn(-c3ccc(Cl)nc3)nn2)c1` [Compound 1G, 2-Chloro-5-[4-(3-isocyano-phenyl)-[1,2,3]triazol-1-yl]-pyridine] yielded a melting point of 202.2 to 203.6 °C.
Work on `N#Cc1cccc(-n2cc(-c3ccc(Cl)nc3)nn2)c1` [Compound 1H, 3-[4-(6-Chloro-pyridin-3-yl)-[1,2,3]triazol-1-yl]-benzonitrile] yielded a melting point of 219.3 to 220 °C.
With `Fc1cccc(Cl)c1-n1cc(-c2cccnc2)nn1` [Compound 1I, 3-[1-(2-Chloro-6-fluoro-phenyl)-1H-[1,2,3]triazol-4-yl]-pyridine] the melting point was 94.5 to 97.1 °C.
Compound `N#Cc1cccc(-n2cc(-c3cccnc3Cl)nn2)c1` [Compound 1J, 3-[4-(2-Chloro-pyridin-3-yl)-[1,2,3]triazol-1-yl]-benzonitrile] has a melting point of 181 to 182.6 °C.
With `[C-]#[N+]c1cccc(-c2cn(-c3cccnc3Cl)nn2)c1` [Compound 1K, 2-Chloro-3-[4-(3-isocyano-phenyl)-[1,2,3]triazol-1-yl]-pyridine] the melting point was 184 to 185 °C.
With `Fc1cncc(-c2cn(-c3cccnc3)nn2)c1` [Compound 1L, 3-Fluoro-5-(1-pyridin-3-yl-1H-[1,2,3]triazol-4-yl)-pyridine] the melting point was 190.2 to 191.6 °C.
Compound `Fc1ccc(-c2cn(-c3cccnc3)nn2)cn1` [Compound 1M, 2-Fluoro-5-(1-pyridin-3-yl-1H-[1,2,3]triazol-4-yl)-pyridine] has a melting point of 187 to 188.7 °C.
`COc1ccc(-c2cn(-c3cccnc3)nn2)cn1` [Compound 1N, 2-Methoxy-5-(1-pyridin-3-yl-1H-[1,2,3]triazol-4-yl)-pyridine] gave a melting point of 205.6 to 206.9 °C.
In the case of `Fc1cncc(-n2cc(-c3cccnc3)nn2)c1` [Compound 1O, 3-Fluoro-5-(4-pyridin-3-yl-[1,2,3]triazol-1-yl)-pyridine], the melting point is reported as 190.6 to 191.7 °C.
Compound `Fc1ccc(-n2cc(-c3cccnc3)nn2)cn1` [Compound 1P, 2-Fluoro-5-(4-pyridin-3-yl-[1,2,3]triazol-1-yl)-pyridine] has a melting point of 221.3 to 222.6 °C.
In the case of `Brc1cncc(-n2cc(-c3cccnc3)nn2)c1` [Compound 1Q, 3-Bromo-5-(4-pyridin-3-yl-[1,2,3]triazol-1-yl)-pyridine], the melting point is reported as 226.2 to 227.8 °C.
Compound `Fc1cccc(-n2cc(-c3cccnc3)nn2)c1` [Compound 1R, 3-[1-(3-Fluoro-phenyl)-1H-[1,2,3]triazol-4-yl]-pyridine] has a melting point of 156.3 to 158.2 °C.
In the case of `Fc1ccc(-n2cc(-c3cccnc3)nn2)cc1` [Compound 1S, 3-[1-(4-Fluoro-phenyl)-1H-[1,2,3]triazol-4-yl]-pyridine], the melting point is reported as 179.9 to 190.9 °C.

Target: T1, human nicotinic acetylcholine receptor subtype a4b2 (Homo sapiens, UniProt P17787+P43681)
T1 construct: expressed in transfected cells; host or cells: HEK-293
T1 sequence (P43681 29-627 limits assumed): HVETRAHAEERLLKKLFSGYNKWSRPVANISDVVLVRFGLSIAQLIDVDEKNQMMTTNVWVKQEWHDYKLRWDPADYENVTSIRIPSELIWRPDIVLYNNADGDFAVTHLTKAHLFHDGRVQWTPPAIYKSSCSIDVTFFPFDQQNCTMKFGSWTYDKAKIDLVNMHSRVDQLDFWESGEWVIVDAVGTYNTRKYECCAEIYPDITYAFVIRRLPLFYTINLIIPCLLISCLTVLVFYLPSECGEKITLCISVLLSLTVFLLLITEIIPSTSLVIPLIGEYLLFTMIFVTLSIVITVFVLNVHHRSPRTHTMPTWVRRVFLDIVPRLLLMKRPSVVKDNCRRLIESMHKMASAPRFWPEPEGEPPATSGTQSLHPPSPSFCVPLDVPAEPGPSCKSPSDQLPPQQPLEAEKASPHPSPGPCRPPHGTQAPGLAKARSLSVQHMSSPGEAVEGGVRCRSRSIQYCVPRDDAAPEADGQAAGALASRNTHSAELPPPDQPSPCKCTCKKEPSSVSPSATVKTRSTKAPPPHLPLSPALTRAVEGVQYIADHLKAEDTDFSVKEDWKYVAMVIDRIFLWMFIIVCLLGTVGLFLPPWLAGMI
T1 sequence (P17787 26-502): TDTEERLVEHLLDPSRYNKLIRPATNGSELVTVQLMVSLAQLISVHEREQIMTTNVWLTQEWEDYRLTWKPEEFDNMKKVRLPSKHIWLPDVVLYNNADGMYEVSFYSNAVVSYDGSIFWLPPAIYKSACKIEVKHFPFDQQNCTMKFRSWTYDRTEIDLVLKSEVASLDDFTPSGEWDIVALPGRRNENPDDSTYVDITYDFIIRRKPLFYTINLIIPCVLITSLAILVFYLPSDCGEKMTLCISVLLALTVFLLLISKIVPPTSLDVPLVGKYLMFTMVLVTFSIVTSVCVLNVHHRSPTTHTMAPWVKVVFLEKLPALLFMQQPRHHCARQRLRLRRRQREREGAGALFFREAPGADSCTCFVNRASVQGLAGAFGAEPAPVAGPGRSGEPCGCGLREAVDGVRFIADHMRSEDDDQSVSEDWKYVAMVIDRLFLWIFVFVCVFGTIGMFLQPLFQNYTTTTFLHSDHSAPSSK
Experiment: FLIPR nAChR a4b2 positive allosteric modulator activity (shift of nicotine concentration-response)
Type: cell-based
Conditions: nicotine +/- test compound, HEK-293 cells stably expressing hα4β2
Procedure: Characterization of hα4β2 positive allosteric modulators using FLIPR
The modulator activity is determined as a fluorescence-based assay using a Fluorometric Imaging Plate Reader (FLIPR) as described below in more detail.
Full concentration-response curves of nicotine +/− test compound are generated and delta pEC50 values are calculated based on EC50 values for nicotine +/− test compound. EC50 values (Effective Concentration 50%) represent the concentration of the nicotine, at which the nicotine-induced response is 50% of the maximal nicotine-induced response.
Preferred compounds of the invention show an activity determined as delta pEC50 values above 1 in the presence of 10 μM of the test compound compared to nicotine alone.
With `N#Cc1cccc(-n2cc(-c3cccnc3)nn2)c1` [Compound 1, 3-(4-Pyridin-3-yl-[1,2,3]triazol-1-yl)-benzonitrile] the Delta pEC50 was 1.6.
Compound `N#Cc1ccc(-n2cc(-c3cccnc3)nn2)o1` [Compound 2, 5-(4-pyridin-3-yl-[1,2,3]triazol-1-yl)-furan-2-carbonitrile] has a Delta pEC50 of 1.2.

Reference: US20110212999A1, “TRIAZOLE DERIVATIVES AND THEIR USE AS NICOTINIC ACETYLCHOLINE RECEPTOR MODULATORS” (NEUROSEARCH A/S, priority 2008, published 2011)
